Drawing on patent publication US12187742B2 (XRAD Therapeutics, Inc., priority 2018, dated 2025), this text covers IC50 for 20 molecules.

Assay [1] addresses DNA-PK (Homo sapiens (Human), UniProt P78527). As to the kind of experiment: DNA-PK Enzyme-Linked Immunosorbent Assay (phosphorylation of GST-p53 (1-101) peptide). The assay is classed as biochemical. Conditions: ELISA, ATP 20 μM. In short, it runs like this: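 Inhibition measured by 450 nm absorbance after HRP/TMB detection of phospho-Ser15 on immobilized GST-p53 (1-101). The kinase reaction used 0.1 μg/mL DNA-PK and 20 μM ATP, 1 h at 25 °C. Ten 3-fold compound dilutions, top final concentration 100 nM.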
(ELISA stands for enzyme-linked immunosorbent assay.)

Assay [2] addresses ATM (Homo sapiens (Human), UniProt Q13315). As to the kind of experiment: ATM in Cell Western Assay (pKAP1 in etoposide-treated MCF-7 cells). Conditions: MCF-7 cells, etoposide 100 μM, 1 hr, pKAP1 readout. The assay is classed as cell-based. The gist of the method: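 After paraformaldehyde fixation and Triton X-100 permeabilization, immunostained plates were read by infrared scanning (ODYSSEY CLx). Compound was given as 10 doses, 3-fold dilutions from a 1 μM final top concentration.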

Where a name gives a salt, the structure may show the parent alone.

What is called IC50 is the concentration needed to halve the response being measured. The low end stands for inhibition by little substance, the high end for a need for much substance.

Sequence of ATM (Q13315 whole entry): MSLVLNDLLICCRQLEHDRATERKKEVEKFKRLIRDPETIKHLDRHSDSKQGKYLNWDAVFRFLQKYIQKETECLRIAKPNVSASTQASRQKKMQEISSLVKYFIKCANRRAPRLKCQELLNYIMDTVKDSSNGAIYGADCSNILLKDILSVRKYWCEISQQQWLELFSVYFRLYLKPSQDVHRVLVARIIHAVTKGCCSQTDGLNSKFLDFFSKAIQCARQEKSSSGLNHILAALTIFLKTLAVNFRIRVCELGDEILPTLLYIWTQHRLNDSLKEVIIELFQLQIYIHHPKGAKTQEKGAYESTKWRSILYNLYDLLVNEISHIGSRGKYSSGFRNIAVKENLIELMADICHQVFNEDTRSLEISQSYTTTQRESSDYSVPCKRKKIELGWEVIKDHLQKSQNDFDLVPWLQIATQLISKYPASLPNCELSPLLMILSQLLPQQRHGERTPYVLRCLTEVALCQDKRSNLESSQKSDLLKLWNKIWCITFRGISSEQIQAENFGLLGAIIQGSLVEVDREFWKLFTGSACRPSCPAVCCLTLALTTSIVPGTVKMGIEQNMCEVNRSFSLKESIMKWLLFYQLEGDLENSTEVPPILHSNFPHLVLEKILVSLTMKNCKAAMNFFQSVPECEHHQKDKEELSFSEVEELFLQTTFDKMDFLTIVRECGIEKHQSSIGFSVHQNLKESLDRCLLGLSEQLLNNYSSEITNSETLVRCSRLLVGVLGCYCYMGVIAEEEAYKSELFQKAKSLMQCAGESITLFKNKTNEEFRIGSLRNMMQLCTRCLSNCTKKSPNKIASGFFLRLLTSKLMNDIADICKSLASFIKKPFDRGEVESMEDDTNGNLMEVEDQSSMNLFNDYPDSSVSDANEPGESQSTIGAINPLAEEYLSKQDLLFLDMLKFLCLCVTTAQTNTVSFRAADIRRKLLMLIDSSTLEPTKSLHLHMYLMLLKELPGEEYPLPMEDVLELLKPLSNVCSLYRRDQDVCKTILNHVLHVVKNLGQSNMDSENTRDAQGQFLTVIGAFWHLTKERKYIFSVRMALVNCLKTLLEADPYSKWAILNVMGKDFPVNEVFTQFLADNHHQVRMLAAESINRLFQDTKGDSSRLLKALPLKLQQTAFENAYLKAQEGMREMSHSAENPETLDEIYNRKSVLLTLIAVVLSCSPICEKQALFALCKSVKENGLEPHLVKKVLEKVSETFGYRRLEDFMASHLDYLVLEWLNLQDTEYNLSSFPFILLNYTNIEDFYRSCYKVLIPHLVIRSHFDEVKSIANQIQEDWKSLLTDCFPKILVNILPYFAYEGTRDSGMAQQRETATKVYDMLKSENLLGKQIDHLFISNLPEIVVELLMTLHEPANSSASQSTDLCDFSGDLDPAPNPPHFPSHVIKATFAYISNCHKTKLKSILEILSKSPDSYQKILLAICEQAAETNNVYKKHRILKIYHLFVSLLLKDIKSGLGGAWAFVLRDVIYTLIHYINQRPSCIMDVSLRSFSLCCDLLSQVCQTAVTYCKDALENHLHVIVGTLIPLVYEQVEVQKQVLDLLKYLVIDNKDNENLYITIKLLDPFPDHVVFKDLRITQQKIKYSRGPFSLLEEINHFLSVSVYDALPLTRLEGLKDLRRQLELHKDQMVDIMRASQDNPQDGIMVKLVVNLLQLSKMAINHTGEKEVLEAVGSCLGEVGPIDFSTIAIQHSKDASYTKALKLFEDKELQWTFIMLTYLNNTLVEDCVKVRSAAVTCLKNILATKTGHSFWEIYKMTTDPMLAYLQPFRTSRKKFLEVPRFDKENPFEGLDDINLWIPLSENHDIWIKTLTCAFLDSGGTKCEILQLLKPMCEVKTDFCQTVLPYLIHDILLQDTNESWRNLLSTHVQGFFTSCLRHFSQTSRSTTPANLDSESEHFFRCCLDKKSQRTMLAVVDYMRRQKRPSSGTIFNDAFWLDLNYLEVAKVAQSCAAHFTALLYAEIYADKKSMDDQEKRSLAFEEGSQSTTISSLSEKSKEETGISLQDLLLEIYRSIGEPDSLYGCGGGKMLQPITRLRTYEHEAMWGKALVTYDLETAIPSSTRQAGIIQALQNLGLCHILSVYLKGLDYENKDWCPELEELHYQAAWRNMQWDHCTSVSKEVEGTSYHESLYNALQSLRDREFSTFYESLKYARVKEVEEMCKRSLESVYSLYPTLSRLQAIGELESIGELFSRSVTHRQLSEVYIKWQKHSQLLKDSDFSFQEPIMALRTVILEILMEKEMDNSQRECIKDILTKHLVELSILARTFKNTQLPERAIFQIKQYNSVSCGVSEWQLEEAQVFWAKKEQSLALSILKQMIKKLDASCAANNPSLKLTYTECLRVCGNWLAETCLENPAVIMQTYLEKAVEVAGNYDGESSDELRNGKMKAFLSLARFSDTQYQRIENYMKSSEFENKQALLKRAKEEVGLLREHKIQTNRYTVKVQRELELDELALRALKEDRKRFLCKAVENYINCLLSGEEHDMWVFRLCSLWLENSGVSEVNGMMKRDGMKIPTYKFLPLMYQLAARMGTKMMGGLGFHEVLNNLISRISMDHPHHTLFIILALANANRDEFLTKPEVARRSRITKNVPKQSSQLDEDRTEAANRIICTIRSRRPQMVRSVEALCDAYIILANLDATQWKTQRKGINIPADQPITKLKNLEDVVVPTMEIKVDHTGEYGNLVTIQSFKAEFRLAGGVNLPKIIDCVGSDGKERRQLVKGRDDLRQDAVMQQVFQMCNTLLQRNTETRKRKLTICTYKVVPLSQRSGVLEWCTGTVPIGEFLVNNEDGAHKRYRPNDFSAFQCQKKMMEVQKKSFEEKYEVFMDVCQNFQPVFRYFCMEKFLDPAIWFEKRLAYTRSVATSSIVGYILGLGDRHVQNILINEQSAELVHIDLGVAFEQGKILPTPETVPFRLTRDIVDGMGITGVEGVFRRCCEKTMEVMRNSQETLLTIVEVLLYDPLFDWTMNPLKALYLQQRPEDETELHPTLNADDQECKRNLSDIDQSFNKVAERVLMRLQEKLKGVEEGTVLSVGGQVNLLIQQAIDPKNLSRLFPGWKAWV

As for `CN1C(=O)C2(CCC2)c2c1cnc1ccc(-c3cnc(N4CCC(N5CCCCC5)CC4)c(NS(=O)(=O)c4ccccc4)c3)cc21` [Example 155, N-(2-([1,4′-Bipiperidin]-1′-yl)-5-(3′-methyl-2′-oxo-2′,3′-dihydrospiro[cyclobulane-1,1′-pyrrolo[2,3-c]quinolin]-8′-yl)pyridin-3-yl)benzenesulfonamide hydrochloride], the IC50 in assay [1] fell in the range of 0.5 to 1 nM; in assay [2], 1 to 100 nM.
For `CN(C)CCCOc1ncc(-c2ccc3ncc4c(c3c2)C2(CCC2)C(=O)N4C)cc1NS(=O)(=O)c1cc(F)cc(C(F)(F)F)c1` [Example 156, N-(2-(3-(Dimethylamino)propoxy)-5-(3′-methyl-2′-oxo-2′,3′-dihydrospiro[cyclobulane-1,1′-pyrrolo[2,3-c]quinolin]-8′-yl)pyridin-3-yl)-3-fluoro-5-(trifluoromethyl)benzenesulfonamide hydrochloride] the same measures were 1 to 100 nM and 1 to 100 nM.
For `CN(C)CCCOc1ncc(-c2ccc3ncc4c(c3c2)C2(CCC2)C(=O)N4C)cc1NS(=O)(=O)c1cc(Cl)cc(Cl)c1` [Example 157, 3,5-Dichloro-N-(2-(3-(dimethylamino)propoxy)-5-(3′-methyl-2′-oxo-2′,3′-dihydrospiro [cyclobutane-1,1′-pyrrolo[2,3-c]quinolin]-8′-yl)pyridin-3-yl) benzenesulfonamide hydrochloride], in that order: 1 to 100 nM and 1 to 100 nM.
For `CN(C)CCCOc1ncc(-c2ccc3ncc4c(c3c2)C2(CCC2)C(=O)N4C)cc1NS(=O)(=O)c1ccc(F)cc1` [Example 158, N-(2-(3-(Dimethylamino)propoxy)-5-(3′-methyl-2-oxo-2′,3′-dihydrospiro[cyclobulane-1,1′-pyrrolo[2,3-c]quinolin]-8′-yl)pyridin-3-yl)-4-fluorobenzenesulfonamide hydrochloride], in that order: 0.5 to 1 nM and 0.5 to 1 nM.
`CN(C)CCCOc1ncc(-c2ccc3ncc4c(c3c2)C2(CCC2)C(=O)N4C)cc1NS(=O)(=O)c1ccc(F)c(C#N)c1` [Example 159, 3-Cyano-N-(2-(3-(dimethylamino)propoxy)-5-(3′-methyl-2′-oxo-2′,3′-dihydrospiro [cyclobutane-1,1′-pyrrolo[2,3-c]quinolin]-8′-yl)pyridin-3-yl)-4-fluorobenzene-sulfonamide hydrochloride]: the IC50 in assay [1] and in assay [2] was 0.5 to 1 nM throughout.
In the case of `CN(C)CCCOc1ncc(-c2ccc3ncc4c(c3c2)C2(CCC2)C(=O)N4C)cc1NS(=O)(=O)c1cscn1` [Example 160, N-(2-(3-(Dimethylamino)propoxy)-5-(3′-methyl-2′-oxo-2′,3′-dihydrospiro[cyclobutane-1,1′-pyrrolo[2,3-c]quinolin]-8′-yl)pyridin-3-yl)thiazole-4-sulfonamide hydrochloride], the IC50 is < 0.5 nM in assay [1] and 1 to 100 nM in assay [2].
Consider `CN(C)CCCOc1ncc(-c2ccc3ncc4c(c3c2)C2(CCC2)C(=O)N4C)cc1NS(=O)(=O)N1CCN(C)CC1` [Example 162, N-(2-(3-(Dimethylamino)propoxy)-5-(3′-methyl-2′-oxo-2′,3′-dihydrospiro[cyclobutane-1,1′-pyrrolo[2,3-c]quinolin]-8′-yl)pyridin-3-yl)-4-methylpiperazine-1-sulfonamide hydrochloride], for which the IC50 is 0.5 to 1 nM in assay [1] and 1 to 100 nM in assay [2].
For `CCN(C)S(=O)(=O)Nc1cc(-c2ccc3ncc4c(c3c2)C2(CCC2)C(=O)N4C)cnc1OCCCN(C)C` [Example 163, 8′-{6-[3-(Dimethylamino)propoxy]5-{[ethyl(methyl)sulfamoyl]amino}pyridin-3-yl}-3′-Methyl-2′,3′-dihydrospiro[cyclobutane-1,1′-pyrrolo[2,3-c]quinoline]-2′-one], in that order: 0.5 to 1 nM and 1 to 100 nM.
Turning to `CN(C)CCCOc1ncc(-c2ccc3ncc4c(c3c2)C2(CCC2)C(=O)N4C)cc1NS(=O)(=O)N1CCC1` [Example 164, N-(2-(3-(Dimethylamino)propoxy)-5-(3′-methyl-2′-oxo-2′,3′-dihydrospiro[cyclobutane-1,1′-pyrrolo[2,3-c]quinolin]-8′-yl)pyridin-3-yl)azetidine-1-sulfonamide], the IC50 in assay [1] is < 0.5 nM; in assay [2], 1 to 100 nM.
For `CC1CCN(S(=O)(=O)Nc2cc(-c3ccc4ncc5c(c4c3)C3(CCC3)C(=O)N5C)cnc2OCCCN(C)C)CC1` [Example 165, N-(2-(3-(Dimethylamino)propoxy)-5-(3′-methyl-2′-oxo-2′,3′-dihydrospiro[cyclobutane-1,1′-pyrrolo[2,3-c]quinolin]-8′-yl)pyridin-3-yl)-4-methylpiperidine-1-sulfonamide], in that order: 1 to 100 nM and 1 to 100 nM.
Take `CN(C)CCCOc1ncc(-c2ccc3ncc4c(c3c2)C2(CCC2)C(=O)N4C)cc1NS(=O)(=O)c1cnn(C)c1` [Example 166, N-(2-(3-(Dimethylamino)propoxy)-5-(3′-methyl-2′-oxo-2′,3′-dihydrospiro [cyclobutane-1,1′-pyrrolo [2,3-c]quinolin]-8′-yl)pyridin-3-yl)-1-methyl-1H-pyrazole-4-sulfonamide hydrochloride]: the IC50 in assay [1] and in assay [2] was 1 to 100 nM in each case.
As for `Cc1ccc(S(=O)(=O)Nc2cc(-c3ccc4ncc5c(c4c3)C3(CCC3)C(=O)N5C)cnc2N2CCC(N3CCOCC3)CC2)cc1` [Example 167, 4-Methyl-N-(5-(3′-methyl-2′-oxo-2′,3′-dihydrospiro[cyclobutane-1,1′-pyrrolo[2,3-c]quinolin]-8′-yl)-2-(4-morpholinopiperidin-l-yl)pyridin-3-yl)benzenesulfonamide hydrochloride], the IC50 in assay [1] and in assay [2] was 1 to 100 nM throughout.
In the case of `CN(C)CCCOc1ncc(-c2ccc3ncc4c(c3c2)C2(CCC2)C(=O)N4C)cc1NS(=O)(=O)c1ccccc1F` [Example 168, N-(2-(3-(Dimethylamino)propoxy)-5-(3′-methyl-2′-oxo-2′,3′-dihydrospiro[cyclobutane-1,1′-pyrrolo[2,3-c]quinolin]-8′-yl)pyridin-3-yl)-2-fluorobenzenesulfonamide hydrochloride], the IC50 is < 0.5 nM in assay [1] and 0.5 to 1 nM in assay [2].
On to `CN(C)CCCOc1ncc(-c2ccc3ncc4c(c3c2)C2(CCC2)C(=O)N4C)cc1NS(=O)(=O)c1cncs1` [Example 169, N-(2-(3-(Dimethylamino)propoxy)-5-(3′-methyl-2′-oxo-2′,3′-dihydrospiro [cyclobutane-1,1′-pyrrolo [2,3-c]quinolin]-8′-230 yl)pyridin-3-yl)thiazole-5-sulfonamide hydrochloride], for which the concentration for half-maximal inhibition (IC50) was < 0.5 nM in assay [1] and 1 to 100 nM in assay [2].
For `Cc1cc(S(=O)(=O)Nc2cc(-c3ccc4ncc5c(c4c3)C3(CCC3)C(=O)N5C)cnc2OCCCN(C)C)sn1` [Example 170, N-(2-(3-(Dimethylamino)propoxy)-5-(3′-methyl-2′-oxo-2′,3′-dihydrospiro [cyclobutane-1,1′-pyrrolo[2,3-c]quinolin]-8′-yl)pyridin-3-yl)-3-methylisothiazole-5-sulfonamide hydrochloride] the same measures were < 0.5 nM and 1 to 100 nM.
For `CN(C)CCCOc1ncc(-c2ccc3ncc4c(c3c2)C2(CCC2)C(=O)N4C)cc1NS(=O)(=O)c1cc(F)cc(Cl)c1` [Example 171, 3-Chloro-N-(2-(3-(dimethylamino)propoxy)-5-(3′-methyl-2′-oxo-2′,3′-dihydrospiro[cyclobutane-1,1′-pyrrolo[2,3-c]quinolin]-8′-yl)pyridin-3-yl)-5-fluorobenzenesulfonamide hydrochloride] the same measures were 0.5 to 1 nM and 1 to 100 nM.
For `CC1CCCN1S(=O)(=O)Nc1cc(-c2ccc3ncc4c(c3c2)C2(CCC2)C(=O)N4C)cnc1OCCCN(C)C` (stereo not shown) [Example 172, N-(2-(3-(Dimethylamino)propoxy)-5-(3′-methyl-2′-oxo-2′,3′-dihydrospiro [cyclobulane-1,1′-pyrrolo[2,3-c]quinolin]-8′-yl)pyridin-3-yl)-2-methylpyrrolidine-1-sulfonamide], in that order: 1 to 100 nM and 1 to 100 nM.
For the molecule `CN1C(=O)C2(CCC2)c2c1cnc1ccc(-c3cnc(N4CCC(N(C)C)CC4)c(NS(=O)(=O)C4CC4)c3)cc21` [Example 173, N-(2-(4-(Dimethylamino)piperidin-1-yl)-5-(3′-methyl-2′-oxo-2′,3′-dihydrospiro[cyclobutane-1,1′-pyrrolo[2,3-c]quinolin]-8′-yl)pyridin-3-yl)cyclopropanesulfonamide], the IC50 in assay [1] and in assay [2] was < 0.5 nM throughout.
As for `CC1CCCN(S(=O)(=O)Nc2cc(-c3ccc4ncc5c(c4c3)C3(CCC3)C(=O)N5C)cnc2OCCCN(C)C)C1` (stereo not shown) [Example 175, N-(2-(3-(Dimethylamino)propoxy)-5-(3′-methyl-2′-oxo-2′,3′-dihydrospiro [cyclobutane-1,1′-pyrrolo[2,3-c]quinolin]-8′-yl)pyridin-3-yl)-3-methylpiperidine-1-sulfonamide], the IC50 in assay [1] and in assay [2] was 1 to 100 nM in each case.
`CN(C)CCCOc1ncc(-c2ccc3ncc4c(c3c2)C2(CCC2)C(=O)N4C)cc1NS(=O)(=O)N1CCNCC1` [Example 177, N-(2-(3-(Dimethylamino)propoxy)-5-(3′-methyl-2′-oxo-2′,3′-dihydrospiro [cyclobutane-1,1′-pyrrolo[2,3-c]quinolin]-8′-yl)pyridin-3-yl)piperazine-1-sulfonamide]: the IC50 in assay [1] was < 0.5 nM; in assay [2] it was 1 to 100 nM.
